According to US20080182822A1, “Liquid Pharmaceutical Compositions Comprising a Bisphosphonate Compound” (Besins Healthcare SA, priority 2006, published 2008):
Where two headings read alike, the source gives them in different places.

Legend:
[1] = Bisphosphonate concentration at about 90% saturation in the vehicle; assay type: physicochemical
Experimental: Compositions in various vehicles (water/ethanol or buffer/ethanol, with or without additional ingredients, water (pure aqueous)) were prepared, using each bisphosphonate at a concentration of about 90% the saturation value. For example, “90/10” denotes a 90/10 (v/v) mixture of water/ethanol; “90/10 pH6” denotes a 90/10 (v/v) mixture of phosphate buffer pH6/ethanol.
Bisphosphonate concentrations are at about 90% saturation.
Risedronate sodium is generally administered using a dose of 35 mg of anhydrous monosodium risedronate, once a week. Advantageously, for a topical dose of 35 mg, this corresponds to 1.5 g of a solution according to one embodiment (risedronate at 90% saturation in phosphate-buffered hydroalcoholic solution 90/10 […], i.e. anhydrous monosodium risedronate at 22.4 mg/g). The same topical dose of 35 mg, corresponds to 0.8 g of another embodiment (risedronate at 90% saturation in pure water, i.e. anhydrous monosodium risedronate at 45.3 mg/g). […] The in vitro condition of application—i.e. 10 μl/1.77 cm^2—mimics an in vivo situation wherein the formulation is applied as a thin layer of 1-2 mg of formulation/cm^2.

ovariectomized rats [2] = settings: OVX rats
Text: (§1) Ovariectomized rats are a recognised model for bone loss study, as the surgical operation causes an estrogen deficiency which results in rapid bone loss. See Guideline on the evaluation of medicinal products in the treatment of primary osteoporosis, CPMP/EWP/552/95 available for download from the European Medicine Agency at: http://www.emea.europa.eu/.
(§2) 13-week old rats (Sprague-Dawley, virgin female), 8 per group, were sham operated (group 1-control) or ovariectomized (OVX) (groups 2 to 7) on the day before the first day of treatment.
Femur and L2-L5 lumbar vertebrae block Bone Mineral Density (BMD) were calculated from in vivo Dual-energy X-ray Absorptiometry (DXA) measurement at the same time points with an Hologic apparatus. BMD was also measured ex vivo on dissected femur and L4 vertebrae at the end of the treatment period.

ovariectomized rats [3] = settings: OVX rats; remark: listed apart in the source
Text: as §1, §2
Urinary deoxypyridinoline (D-pyr) and creatinine (Creat) were determined at baseline, week 4 and week 8. The ratio of D-Pyr to Creat is a recognised marker of bone resorption. See, e.g., Christenson RH “Biochemical markers of bone metabolism: an overview” Clin Biochem 1997, 30(8), 573-593.

[4] = rat, published data, Lin et al.; cited from earlier work
[5] = rat
[6] = In vitro dermal absorption, static diffusion cell (Franz cell)
[7] = phosphate-buffered hydroalcoholic solution 90/10
[8] = group 4: 4.46 mg/kg daily topical (reduced from 15.6 mg/kg/d after 2 weeks)
[9] = group 5: 15.6 mg/kg weekly topical
[10] = group 7: 10.85 mg/kg twice weekly topical (reduced from 15.6 mg/kg after 2 weeks)
[11] = buffered solution, compared to 100% phosphate buffer solution, FIG. 10 / FIG. 11

NCCCC(O)(P(=O)(O)O)P(=O)(O)O [Sodium Alendronate]
concentration at 90% saturation [1, 7]: 10.4 mg/g
concentration at 90% saturation ([1]; pure water): 28.09 mg/g

O=P([O-])(O)C(O)(Cc1cccnc1)P(=O)(O)O.[Na+] [Sodium Risedronate]
concentration at 90% saturation [1, 7]: 22.4 mg/g
concentration at 90% saturation ([1]; pure water): 45.3 mg/g

NCCCC(O)(P(=O)(O)O)P(=O)(O)O [alendronate, 4-amino-1-hydroxybutylidene-1,1-bisphosphonic acid]
BMD results compared with subcutaneous injection (group 3) or control (group 1) (ovariectomized rats [2]; topical groups 4-7, 8 weeks): similar
BMD in the distal metaphysis (part of femur) compared with the subcutaneous injection group (group 3) (ovariectomized rats [2]; topically treated groups 4 and 7): statistically higher
D-pyr/Creat, Week 4 (ovariectomized rats [3]; group 3: 2 μg/kg daily sc inj): 118 ± 64
D-pyr/Creat, Week 8 (ovariectomized rats [3]; group 3: 2 μg/kg daily sc inj): 72 ± 13
D-pyr/Creat, Week 4 (ovariectomized rats [3]; [8]): 58 ± 13
D-pyr/Creat, Week 8 (ovariectomized rats [3]; [8]): 42 ± 15
D-pyr/Creat, Week 4 (ovariectomized rats [3]; [9]): 138 ± 60
D-pyr/Creat, Week 8 (ovariectomized rats [3]; [9]): 67 ± 26
D-pyr/Creat, Week 4 (ovariectomized rats [3]; [10]): 88 ± 52
D-pyr/Creat, Week 8 (ovariectomized rats [3]; [10]): 57 ± 24
bone recovery after oral administration [4]: 0.9%
bone recovery after dermal administration ([5]; data from Example 4): 0.2%
delivered dose contained in gauze wrap removed at 24 h ([5]; dermal administration): about 10%
delivered dose contained in washing medium and swabs ([5]; dermal administration, 24 h): about 46%
dermally delivered alendronate not absorbed ([5]; gauze wrap + washing medium and swabs at 24 h): 56%

O=P(O)(O)C(O)(Cc1cccnc1)P(=O)(O)O [risedronate, 1-hydroxy-2-(3-pyridyl)ethylidene-1,1-bisphosphonic acid]
effect of glycerine on the amount recovered in the receptor fluid and the dermis ([6]; FIG. 12 / FIG. 13): does not significantly increase
effect of propylene glycol (PG) on the amount recovered [6, 11]: does not significantly affect
effect of urea on the amount recovered in the receptor fluid and the skin/dermis [6, 11]: increases
effect of menthol on the amount recovered in the receptor fluid and dermis ([6]; menthol at 90% of saturating concentration in 90/10 phosphate buffer/ethanol, compared to pure phosphate buffer solution, FIG. 6 / FIG. 7): does not increase
amount recovered in the receptor fluid and the dermis with oleic acid, compared to the 100% phosphate buffer solution ([6]; oleic acid at 90% of maximum solubility in 90/10 phosphate buffer/ethanol with Tween 80 at 4.5%, FIG. 12 / FIG. 13): lower
effect of urea on the amount recovered in the receptor fluid and the skin ([6]; urea incorporated in phosphate buffer solution, FIG. 8 / FIG. 9): neutral effect
recovery in the receptor fluid and the dermis at 24 hrs (crossing of the skin) ([6]; water/alcohol compositions, FIG. 1 / FIG. 2): does cross the skin
effect of the increase in alcohol content on absorption, as percentage of the dose applied ([6]; water/alcohol ratios, FIG. 1 / FIG. 2): slightly increased
